One series concerns PDAC-3 cells. The series can be described thus: SRB antiproliferative assay, primary culture PDAC-3. It is filed as cell-based, human. The settings on record: for IC50: Homo sapiens, PDAC-3, 72 h, mean ± SEM, read-out: Half-maximal inhibitory concentration (IC50); for Cell growth percentage: PDAC-3, 10 μM, 72 h exposure. The protocol: (§1) The cytotoxic activity of the nortopsentin derivatives 3b, 3e, 4c, 5b, and 6c on pancreatic cancer cells (BxPC-3, Panc-1, Suit-2, Capan-1, PaTu-T, primary PDAC-3 and resistant Panc-1-GR cells) was determined by the sulforhodamine B (SRB) chemosensitivity assay, as described previously. Cells were plated in 96-well flat-bottom plates at final concentrations ranging from 3000–5000 cells/well in 100 µL of medium. After a 24 h pre-incubation period, cells were treated with the compounds at nine screening concentrations (from 0.1 μM to 40 μM) in triplicate and incubated at 37 °C for 72 h. After the treatment, cells were fixed with 25 µL of cold 50% trichloroacetic acid (TCA) for each well and incubated at 4 °C for 1 h. Afterwards, plates were washed five times with demi-water and air-dried overnight. Then, the plates were stained with 50 µL of 0.4% SRB solution in 1% acetic acid for 15 min. The excess stain was rinsed off by placing the plates under running 1% acetic acid and allowed to dry at room temperature overnight. SRB staining was rinsed with 150 µL tris(hydroxymethyl)aminomethane solution pH = 8.8 (TRIS-base), and the optical density (OD) was read at 492 nm. Each assay was performed in triplicate and assays were repeated at least three times. The comparison of the average optical density of the growth in control wells with that in the sample wells allowed the estimation of the percentage of cell growth, using the following equation: % Cell Growth = (mean ODcompound − mean ODday zero plate)/(mean ODcells − mean ODday zero plate) × 100
(§2) The results obtained were adjusted by the day zero plate (wells containing cells growing for only 24 h) and normalized by the control cells (wells with untreated cells) to obtain the rate of viable cells.
For orientation: The SRB assay estimates cell density from bound dye.

The next series concerns Capan-1 cells. Put plainly: SRB antiproliferative assay, Capan-1. Format: cell-based, human. The settings on record: for Cell growth percentage: Capan-1, 10 μM, 72 h exposure; for IC50: Homo sapiens, Capan-1, 72 h, mean ± SEM, read-out: Half-maximal inhibitory concentration (IC50). The protocol: as §1, §2
Another series relates to Panc-1 cells. Put plainly: SRB antiproliferative assay, Panc-1. Format: cell-based, human. The settings on record: for Cell growth percentage: Panc-1, 10 μM, 72 h exposure; for IC50: Homo sapiens, Panc-1, 72 h, mean ± SEM, read-out: Half-maximal inhibitory concentration (IC50). The procedure:
as §1, §2

The next series relates to PaTu-T cells. Put plainly: SRB antiproliferative assay, PaTu-T. Format: cell-based, human. The note with it: for Cell growth percentage: 10 μM, 72 h exposure; for IC50: Homo sapiens, 72 h, mean ± SEM, read-out: Half-maximal inhibitory concentration (IC50). The procedure: as §1, §2
For series [1], the system named is BxPC-3 cells. Put plainly: SRB antiproliferative assay, BxPC-3. The settings on record: for Cell growth percentage: BxPC-3, 10 μM, 72 h exposure; for IC50: Homo sapiens, BxPC-3, 72 h, mean ± SEM, read-out: Half-maximal inhibitory concentration (IC50). It is filed as cell-based, human. The procedure:
as §1, §2

The test system of a further series is Suit-2 cells. Put plainly: SRB antiproliferative assay, Suit-2. It is filed as cell-based, human. The note with it: for IC50: Homo sapiens, Suit-2, 72 h, mean ± SEM, read-out: Half-maximal inhibitory concentration (IC50); for Cell growth percentage: Suit-2, 10 μM, 72 h exposure. The procedure: as §1, §2
The subject of a further series is Panc-1-GR cells. Put plainly: SRB antiproliferative assay, gemcitabine-resistant Panc-1-GR. The note with it: for Cell growth percentage: 10 μM, 72 h exposure; for IC50: Homo sapiens, 72 h, mean ± SEM, read-out: Half-maximal inhibitory concentration (IC50). Format: cell-based, human. The procedure:
as §1, §2

For the next series, the system named is PDAC cells. The series can be described thus: SRB antiproliferative assay, whole PDAC panel. It is filed as cell-based. The settings on record: Homo sapiens; seven PDAC models, 72 h; read-out: IC50 values, range over the PDAC cell panel. The procedure: as §1, with “The comparison of the average optical density of the growth in control wells with that in the sample wells allowed the estimation of the percentage of cell growth, using the following equation: % Cell Growth = (mean ODcompound − mean ODday zero plate)/(mean ODcells − mean ODday zero plate) × 100” left out

The test system of series [2] is BxPC-3 cells. The series can be described thus: Scratch wound-healing assay, BxPC-3. Format: cell-based, human. The note with it: BxPC-3, 8 h, 4 × IC50, untreated = 100% wound closure. The procedure:
Cell migration was assessed using a wound-healing assay, as described previously. A total of 5 × 10^4 cells/well were seeded in a 96-well plate, to form a confluent monolayer. Scratches were created in confluent cell layers using the sterile scratch tool. The detached cells following scratch induction were removed and new medium was added to the wells. Cells were next treated with compounds 3b and 5b at a concentration of 4 × IC50. Cells growing in a complete medium were maintained at 37 °C with a supply of 5% CO2/95% air atmosphere and 100% relative humidity. The progress of wound closure was observed and documented at various time points (0th, 4th, 8th, 20th, and 24th h) using phase-contrast microscopy. Pictures of the plates were taken using the Universal Grab 6.3 software (DCILabs) from a computer connected to a Leica microscope with a JAI TMC-1327 camera.
The percentage of migration was calculated using the following equation:%Migration = (Width of the wound at T = 0 − Width of the wound at T = X)/(Width of the wound at T = 0) × 100

For `Cn1cc(-c2nnc(-c3c[nH]c4ncccc34)o2)c2ccccc21` [3a, 3-[5-(1-methyl-1H-indol-3-yl)-1,3,4-oxadiazol-2-yl]-7-azaindole], the melting point (usually the temperature of the solid-liquid transition) came out at 302 °C.
Compound `Cn1cc(-c2nnc(-c3cn(C)c4ncccc34)o2)c2cc(F)ccc21` [3c, 3-[5-(5-fluoro-1-methyl-1H-indol-3-yl)-1,3,4-oxadiazol-2-yl]-1-methyl-7-azaindole] displayed a melting point of 268 °C.
Same read-out and setting: next, `Cn1cc(-c2nnc(-c3cn(C)c4ncccc34)o2)c2cc(Br)ccc21` [3d, 3-[5-(5-bromo-1-methyl-1H-indol-3-yl)-1,3,4-oxadiazol-2-yl]-1-methyl-7-azaindole]: 277 °C.
Turning to `Cn1cc(-c2nnc(-c3cn(C)c4ncc(Br)cc34)o2)c2ccccc21` [3e, 5-bromo-1-methyl-3-[5-(1-methyl-1H-indol-3-yl)-1,3,4-oxadiazol-2-yl]-7-azaindole], the melting point is 244 °C. The IC50 in the series with PDAC-3 cells came to 23 ± 0.06 µM. In the series with Capan-1 cells, this compound gave a Cell growth percentage of 59.84%. The Cell growth percentage with Panc-1 cells worked out at 61.96%. The compound further displayed a Cell growth percentage in the series on PaTu-T cells of 72.33%. This compound displayed a Cell growth percentage in the series on BxPC-3 cells [1] of 58.64%. In addition, in the series with Suit-2 cells, the IC50 is 9.4 ± 4.3 µM and the Cell growth percentage is given as 54.94%.
With `Cn1cc(-c2nnc(-c3cn(C)c4ncc(Br)cc34)o2)c2cc(Br)ccc21` [3f, 5-bromo-3-[5-(5-bromo-1-methyl-1H-indol-3-yl)-1,3,4-oxadiazol-2-yl]-1-methyl-7-azaindole], the melting point was 275 °C.
Compound `Cn1cc(-c2nnc(-c3cn(C)c4ncc(Br)cc34)o2)c2cc(F)ccc21` [3g, 5-bromo-3-[5-(5-fluoro-1-methyl-1H-indol-3-yl)-1,3,4-oxadiazol-2-yl]-1-methyl-7-azaindole] yielded a melting point of 310 °C.
On the same count and under the same terms, the value for `c1ccc(-c2nnc(-c3c[nH]c4ncccc34)o2)cc1` [4a, 3-(5-phenyl-1,3,4-oxadiazol-2-yl)-7-azaindole] was 272 °C.
Same read-out and setting: the value for `Cn1cc(-c2nnc(-c3ccccc3)o2)c2cccnc21` [4b, 1-methyl-3-(5-phenyl-1,3,4-oxadiazol-2-yl)-7-azaindole] was 201 °C.
Regarding `Brc1cnc2[nH]cc(-c3nnc(-c4ccccc4)o3)c2c1` [4c, 5-bromo-3-(5-phenyl-1,3,4-oxadiazol-2-yl)-7-azaindole], the melting point amounted to 275 °C. For the same compound, the Cell growth percentage in the series with PDAC-3 cells was determined as 96.60%. Further, in the series on Capan-1 cells, the Cell growth percentage was found to be 75.17% and the IC50 was 10.8 ± 0.67 µM. Besides, in the series with Panc-1 cells, the IC50 turned out to be 13.4 ± 3.2 µM and the Cell growth percentage is 74.33%. Also, in the series on PaTu-T cells, the Cell growth percentage was found to be 31.22% and the IC50 was found to be 9.7 ± 0.17 µM. For the same compound, in the series with Panc-1-GR cells, the Cell growth percentage was 98.62% and the IC50 came out at 10.8 ± 1.4 µM. Besides, in the series on BxPC-3 cells [1], the Cell growth percentage amounted to 21.13% and the IC50 is 3300 ± 2400 nM. For the same compound, the Cell growth percentage in the series on Suit-2 cells is 60.18%.
The compound `Cn1cc(-c2nnc(-c3ccccc3)o2)c2cc(Br)cnc21` [4d, 5-bromo-1-methyl-3-(5-phenyl-1,3,4-oxadiazol-2-yl)-7-azaindole] came in with a melting point of 236 °C.
Still for that read-out and setting: next, `Cn1cc(-c2nnc(-c3c[nH]c4ncccc34)s2)c2ccccc21` [5a, 3-[5-(1-methyl-1H-indol-3-yl)-1,3,4-thiadiazol-2-yl]-7-azaindole]: 246 °C.
As for `Cn1cc(-c2nnc(-c3cn(C)c4ncccc34)s2)c2ccccc21` [5b, 1-methyl-3-[5-(1-methyl-1H-indol-3-yl)-1,3,4-thiadiazol-2-yl]-7-azaindole], the melting point turned out to be 244 °C. In addition, in the series on PDAC-3 cells, the IC50 amounted to 10.6 ± 0.04 µM and the Cell growth percentage stood at 55.90%. In addition, in the series with Capan-1 cells, the Cell growth percentage is 30.86% and the IC50 amounted to 3.3 ± 0.61 µM. Further, in the series on Panc-1 cells, the IC50 stood at 3.5 ± 0.01 µM and the Cell growth percentage is listed as 15.68%. Further, in the series with PaTu-T cells, the Cell growth percentage came out at 27.73% and the IC50 came to 3.4 ± 0.06 µM. Further, in the series with Panc-1-GR cells, the Cell growth percentage is reported as 40.65% and the IC50 amounted to 9.8 ± 0.05 µM. In the series on BxPC-3 cells [1], the Cell growth percentage came out at 32.88% and the IC50 came out at 2700 ± 680 nM. Besides, in the series with PDAC cells, the IC50 lay within 1.9 to 10.6 µM. In addition, in the series with Suit-2 cells, the IC50 was 1.9 ± 0.27 µM and the Cell growth percentage was determined as 19.46%. In addition, the “percentage of cells migrating” value in the series on BxPC-3 cells [2] stood at 66%.
For `Cn1cc(-c2nnc(-c3cn(C)c4ncccc34)s2)c2cc(Br)ccc21` [5c, 3-[5-(5-bromo-1-methyl-1H-indol-3-yl)-1,3,4-thiadiazol-2-yl]-1-methyl-7-azaindole], the melting point amounted to 292 °C.
The same measure, in the same setting: the value for `Cn1cc(-c2nnc(-c3cn(C)c4ncccc34)s2)c2cc(F)ccc21` [5d, 3-[5-(5-fluoro-1-methyl-1H-indol-3-yl)-1,3,4-thiadiazol-2-yl]-1-methyl-7-azaindole] was 240 °C; that for `COc1ccc2c(c1)c(-c1nnc(-c3cn(C)c4ncccc34)s1)cn2C` [5e, 3-[5-(5-methoxy-1-methyl-1H-indol-3-yl)-1,3,4-thiadiazol-2-yl]-1-methyl-7-azaindole] was 200 °C; that for `Cn1cc(-c2nnc(-c3cn(C)c4ncc(Br)cc34)s2)c2ccccc21` [5f, 5-bromo-1-methyl-3-[5-(1-methyl-1H-indol-3-yl)-1,3,4-thiadiazol-2-yl]-7-azaindole] was 233 °C.
Compound `Cn1cc(-c2nnc(-c3cn(C)c4ncc(Br)cc34)s2)c2cc(Br)ccc21` [5g, 5-bromo-3-[5-(5-bromo-1-methyl-1H-indol-3-yl)-1,3,4-thiadiazol-2-yl]-1-methyl-7-azaindole] had a melting point of 275 °C.
On the same count and under the same terms, next, `Cn1cc(-c2nnc(-c3cn(C)c4ncc(Br)cc34)s2)c2cc(F)ccc21` [5h, 5-bromo-3-[5-(5-fluoro-1-methyl-1H-indol-3-yl)-1,3,4-thiadiazol-2-yl]-1-methyl-7-azaindole]: 290 °C; `c1ccc(-c2nnc(-c3c[nH]c4ncccc34)s2)cc1` [6a, 3-(5-phenyl-1,3,4-thiadiazol-2-yl)-7-azaindole]: 249 °C; `Cn1cc(-c2nnc(-c3ccccc3)s2)c2cccnc21` [6b, 1-methyl-3-(5-phenyl-1,3,4-thiadiazol-2-yl)-7-azaindole]: 191 °C.
With `Brc1cnc2[nH]cc(-c3nnc(-c4ccccc4)s3)c2c1` [6c, 5-bromo-3-(5-phenyl-1,3,4-thiadiazol-2-yl)-7-azaindole], the melting point stood at 308 °C. Also, the Cell growth percentage in the series on PDAC-3 cells was found to be 87.84%. Besides, in the series on Capan-1 cells, the Cell growth percentage is reported as 76.76% and the IC50 came to 12.6 ± 1.3 µM. In addition, in the series with Panc-1 cells, the IC50 amounted to 11.5 ± 1.2 µM and the Cell growth percentage is reported as 83.68%. In the series on PaTu-T cells, the Cell growth percentage turned out to be 56.09% and the IC50 is 3.8 ± 1.8 µM. In addition, the Cell growth percentage with BxPC-3 cells [1] was determined as 54.59%. In addition, in the series with Suit-2 cells, the IC50 amounted to 4.1 ± 0.9 µM and the Cell growth percentage is given as 29.80%.
In turn, `Cn1cc(-c2nnc(-c3ccccc3)s2)c2cc(Br)cnc21` [6d, 5-bromo-1-methyl-3-(5-phenyl-1,3,4-thiadiazol-2-yl)-7-azaindole] came in with a melting point of 188 °C.

(Values after PMC10381170, “1,3,4-Oxadiazole and 1,3,4-Thiadiazole Nortopsentin Derivatives against Pancreatic Ductal Adenocarcinoma: Synthesis, Cytotoxic Activity, and Inhibition of CDK1” (Marine Drugs, 2023).)
